Assay results reported in US12709592B2, “Salts of treprostinil” (United Therapeutics Corporation, priority 2013, dated 2026).
Where a name gives a salt, the structure may show the parent alone.

Test: TGA data of UT-15 salts (thermal degradation)
Type: physicochemical
Conditions: thermogravimetric analysis of the isolated solid salt; temperature beyond which weight loss due to degradation occurs
Source text: For all new UT-15 salts, analytical data: IH-NMR, 13C_NMR, IR, purity by HPLC, DSC data, TGA data, water contents, specific rotation were collected.

Structure (SMILES) | TGA: loss due to degradation beyond
CCCCC[C@H](O)CC[C@@H]1[C@H]2Cc3cccc(OCC(=O)O)c3C[C@H]2C[C@H]1O [Arginine Salt] | Moisture = 2.07, degradation beyond 200 °C
CCCCC[C@H](O)CC[C@@H]1[C@H]2Cc3cccc(OCC(=O)O)c3C[C@H]2C[C@H]1O [Choline Salt] | degradation beyond 150 °C
CCCCC[C@H](O)CC[C@@H]1[C@H]2Cc3cccc(OCC(=O)O)c3C[C@H]2C[C@H]1O [L-Lysine Salt] | degradation beyond 200 °C
CCCCC[C@H](O)CC[C@@H]1[C@H]2Cc3cccc(OCC(=O)[O][MgH])c3C[C@H]2C[C@H]1O [Mg Salt] | degradation beyond 250 °C
CCCCC[C@H](O)CC[C@@H]1[C@H]2Cc3cccc(OCC(=O)O)c3C[C@H]2C[C@H]1O [N-Methylglucamine Salt] | degradation beyond 150 °C
CCCCC[C@H](O)CC[C@@H]1[C@H]2Cc3cccc(OCC(=O)[O-])c3C[C@H]2C[C@H]1O.[K+] [Potassium Salt] | degradation beyond 250 °C
